Assay results published in publication PMC6389962 (Nature Communications, 2019).
Like-named read-outs stand apart in the source and are kept apart here. Values belong to the compound of their own block, whether it stands above or below them. Starred links: 1 amine or outer side, 2 acyl side, 3 side chain; linkers in the order of their positions; H or OH if unused. Positions of bridges follow the written chain, without caps; N, C: chain ends. Residues, ends and D or L forms follow the SMILES beside them. Chains are numbered I, II in the order given. X4 = C[C@@H](CNC(=O)N[C@@H](C)CNC(=O)[*:2])NC(=O)NC[C@H](CCC(=O)O)N[*:1]

Experiments:
[1] = molecular target: T1, mouse GLP-1 receptor (Mus musculus, UniProt O35659); assay: cell-based; settings: for Emax: 14: experiment 1
T1 sequence (O35659 22-463): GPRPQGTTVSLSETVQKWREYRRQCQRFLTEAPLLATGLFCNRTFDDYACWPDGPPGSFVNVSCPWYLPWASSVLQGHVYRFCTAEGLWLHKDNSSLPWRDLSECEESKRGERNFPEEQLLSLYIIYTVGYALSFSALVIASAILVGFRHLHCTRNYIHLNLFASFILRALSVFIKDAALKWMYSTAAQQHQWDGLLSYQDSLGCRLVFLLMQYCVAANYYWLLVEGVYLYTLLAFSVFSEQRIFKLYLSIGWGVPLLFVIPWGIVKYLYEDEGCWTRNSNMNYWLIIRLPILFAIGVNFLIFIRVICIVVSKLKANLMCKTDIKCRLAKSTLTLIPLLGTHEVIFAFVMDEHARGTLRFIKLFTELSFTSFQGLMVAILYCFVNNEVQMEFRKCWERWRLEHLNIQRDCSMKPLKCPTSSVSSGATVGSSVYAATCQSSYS

[2] = molecular target: T1, mouse GLP-1 receptor; settings: for Potency (%), percentage of potency compare to GLP-1-G^2: cAMP production, from EC50
[3] = tested on: normal mice (C57BL/6J); assay: Blood glucose study in normal fed mice; format: in vivo, mouse; set-up: key to In vivo activity (indicator): + active; +++: + + + more active; settings: for effect on blood glucose concentration: normal fed C57BL/6J mice, n = 3, 5 μg per mouse (50 nmol kg−1) i.v., monitored 6 h
Description: In the first study, we evaluated the effect of the analogues on the blood glucose concentration of normal mice (Fig. 3). The fed mice were treated with the analogues and their blood glucose concentration was monitored before and after dosing for 6 h. […] Indeed, a decrease of blood glucose concentration is observed after 30 min and the effect is preserved for 4 h after dosing.
Fig. 3 Blood glucose study in mice. a–c Blood glucose concentration in normal mice (C57BL/6J, male, 20–25 g, n = 3) before and after dosing: 5 μg per mouse (50 nmol kg^−1) i.v. Formulation: 20 μg mL^−1 in PBS 1×. The dosing was done at T0. Data are mean ± SEM. […] Source data are provided as a Source Data file
After the acclimation period (at least 5 days), mice (male C57BL/6J mice (Charles River laboratories) 8 weeks old, 20–25 g) were randomized into 10 groups (n = 3 per group) according to their body weight. They were acutely treated via i.v. route at 10 am (5 µg per mouse). Blood glucose was measured before dosing and at 30 min, 1, 2, 4, 6 h after dosing in fed conditions.

[4] = in vitro; settings: mouse, plasma, pH 7.4, % remaining analogue
Description: The oligomer was then diluted 1/50 with a solution of plasma/PBS pH 7.4 (1:1) to afford a final concentration of 5 µM and incubated at 37 °C (4 µL of the stock solution was diluted with 196 µL of plasma/PBS, pH 7.4, 1:1). Each compound was also incubated in the absence of plasma (196 µL of H2O/PBS, pH 7.4, 1:1). At the indicated time (20 min and 60 min) an aliquot of 70 µL was removed from each experimental reaction and pipetting into 175 µL of acetonitrile at 0 °C to quench the reaction (t = 0 min was determined using the reaction without plasma). The samples were frozen at –80 °C before analysis. The frozen samples were defrosted, stirred with a vortex 5 min and finally centrifuged 5 min at 16 °C (1500 × g). The supernatant was analysed by LC-MS. The time course of oligomer degradation was determined by integrating the area of the peak in the extracted ion chromatogram.
Supplementar y Figur e 2 : Mouse plasma degradation assay. […] Data are
mean ± SEM, n = 4. Source data are provided as a Source Data file (T able 2 tab).
Supplementar y Figur e 3.
Data are mean ± SEM, n = 3.
Source data are provided as a Source Data file […]

[5] = read-out: Top (best-fit value), variable slope four-parameter fit, unconstrained
[6] = read-out: Top (best-fit value), fit with BOTTOM = 0%

SMILES: CC[C@H](C)[C@H](NC(=O)[C@H](Cc1ccccc1)NC(=O)[C@H](CCC(=O)O)NC(=O)[C@H](CCCCN)NC(=O)[C@H](C)NC(=O)[C@H](C)NC(=O)[C@H](CCC(N)=O)NC(=O)CNC(=O)[C@H](CCC(=O)O)NC(=O)NC[C@H](C)NC(=O)NC[C@H](Cc1ccc(O)cc1)NC(=O)NC[C@H](C)NC(=O)[C@@H](NC(=O)[C@H](CC(=O)O)NC(=O)[C@H](CO)NC(=O)[C@@H](NC(=O)[C@H](Cc1ccccc1)NC(=O)[C@@H](NC(=O)CNC(=O)[C@H](CCC(=O)O)NC(=O)CNC(=O)[C@@H](N)Cc1c[nH]cn1)[C@@H](C)O)[C@@H](C)O)C(C)C)C(=O)N[C@@H](C)C(=O)N[C@@H](Cc1c[nH]c2ccccc12)C(=O)N[C@@H](CC(C)C)C(=O)N[C@H](C(=O)N[C@@H](CCCCN)C(=O)NCC(=O)N[C@@H](CCCNC(=N)N)C(=O)NCC(N)=O)C(C)C [compound 5, GG2[A^uY^uA^u]^11-14]
EC50 [1]: 1.6 nM
Emax [1, 5]: 89.4%
LogEC50 (best-fit value) [2]: -8.806
Potency (%), percentage of potency compare to GLP-1-G^2 [2]: 15%
In vivo activity (indicator) ([3]; mice, 50 nmol kg−1 i.v.): +
effect on blood glucose concentration [3]: showed efficacy but no improvement
remaining at 20 min, 5 µM [4]: 55%
remaining at 1 h, 5 µM [4]: 33.6%

SMILES: CC[C@H](C)[C@H](NC(=O)[C@H](Cc1ccccc1)NC(=O)[C@H](CCC(=O)O)NC(=O)[C@H](CCCCN)NC(=O)[C@H](C)NC(=O)NC[C@H](C)NC(=O)NC[C@H](C)NC(=O)NC[C@H](CCC(=O)O)NC(=O)[C@H](CC(C)C)NC(=O)[C@H](Cc1ccc(O)cc1)NC(=O)[C@H](CO)NC(=O)[C@H](CO)NC(=O)[C@@H](NC(=O)[C@H](CC(=O)O)NC(=O)[C@H](CO)NC(=O)[C@@H](NC(=O)[C@H](Cc1ccccc1)NC(=O)[C@@H](NC(=O)CNC(=O)[C@H](CCC(=O)O)NC(=O)CNC(=O)[C@@H](N)Cc1c[nH]cn1)[C@@H](C)O)[C@@H](C)O)C(C)C)C(=O)N[C@@H](C)C(=O)N[C@@H](Cc1c[nH]c2ccccc12)C(=O)N[C@@H](CC(C)C)C(=O)N[C@H](C(=O)N[C@@H](CCCCN)C(=O)NCC(=O)N[C@@H](CCCNC(=N)N)C(=O)NCC(N)=O)C(C)C [compound 11, GG2[E^uA^uA^u]^15-18] (I: H-HGEGTFTSDVSSYL / II: AKEFIAWLVKGRG-NH2; linker I:C-II:N via X4)
LogEC50 (best-fit value) [2]: -8.721
Potency (%), percentage of potency compare to GLP-1-G^2 [2]: 13%
remaining at 20 min, 5 µM [4]: 44.7%
remaining at 1 h, 5 µM [4]: 31.1%

SMILES: CC(C)C[C@H](NC(=O)[C@H](Cc1ccc(O)cc1)NC(=O)[C@H](CO)NC(=O)[C@H](CO)NC(=O)[C@@H](NC(=O)[C@H](CC(=O)O)NC(=O)[C@H](CO)NC(=O)[C@@H](NC(=O)[C@H](Cc1ccccc1)NC(=O)[C@@H](NC(=O)CNC(=O)[C@H](CCC(=O)O)NC(=O)CNC(=O)[C@@H](N)Cc1c[nH]cn1)[C@@H](C)O)[C@@H](C)O)C(C)C)C(=O)N[C@@H](CCC(=O)O)C(=O)NCC(=O)N[C@@H](CCC(N)=O)C(=O)N[C@@H](C)C(=O)N[C@@H](C)C(=O)N[C@@H](CCCCN)C(=O)N[C@@H](CCC(=O)O)C(=O)N[C@@H](Cc1ccccc1)C(=O)N[C@@H](C)CNC(=O)N[C@@H](C)CNC(=O)N[C@@H](C)CNC(=O)N[C@H](C(=O)N[C@@H](CCCCN)C(=O)NCC(=O)N[C@@H](CCCNC(=N)N)C(=O)NCC(N)=O)C(C)C [compound 17, GG2[A^uA^uA^u]^23-26]
EC50 [1]: 3930 nM
Emax [1, 5]: 98.7%
LogEC50 (best-fit value) [2]: -5.406
Potency (%), percentage of potency compare to GLP-1-G^2 [2]: 0.01%

Now from value to compound, other results behind:

EC50 [1]: 62 nM
Emax [1, 6]: 228%
Potency (%), percentage of potency compare to GLP-1-G^2 [2]: 0.4%
remaining at 1 h, 5 µM [4]: 41.6%
SMILES: CC[C@H](C)[C@@H](CNC(=O)N[C@@H](C)CNC(=O)N[C@@H](CC(C)C)C(=O)N[C@H](C(=O)N[C@@H](CCCCN)C(=O)NCC(=O)N[C@@H](CCCNC(=N)N)C(=O)NCC(N)=O)C(C)C)NC(=O)N[C@@H](CNC(=O)[C@H](CCC(=O)O)NC(=O)[C@H](CCCCN)NC(=O)[C@H](C)NC(=O)[C@H](C)NC(=O)[C@H](CCC(N)=O)NC(=O)CNC(=O)[C@H](CCC(=O)O)NC(=O)[C@H](CC(C)C)NC(=O)[C@H](Cc1ccc(O)cc1)NC(=O)[C@H](CO)NC(=O)[C@H](CO)NC(=O)[C@@H](NC(=O)[C@H](CC(=O)O)NC(=O)[C@H](CO)NC(=O)[C@@H](NC(=O)[C@H](Cc1ccccc1)NC(=O)[C@@H](NC(=O)CNC(=O)[C@H](CCC(=O)O)NC(=O)CNC(=O)[C@@H](N)Cc1c[nH]cn1)[C@@H](C)O)[C@@H](C)O)C(C)C)Cc1ccccc1 [compound 16, GG2[F^uαf^uA^u]^22-25]
effect on blood glucose concentration [3]: showed no activity

EC50 [1]: > 10000 nM
Emax [1, 6]: 6.08%
Emax [1, 5]: 6.19%
Potency (%), percentage of potency compare to GLP-1-G^2 [2]: < 0.01%
SMILES: CC[C@H](C)[C@H](NC(=O)[C@H](Cc1ccccc1)NC(=O)[C@H](CCC(=O)O)NC(=O)[C@H](CCCCN)NC(=O)[C@H](C)NC(=O)[C@H](C)NC(=O)[C@H](CCC(N)=O)NC(=O)CNC(=O)NC[C@H](C)NC(=O)NC[C@H](C)NC(=O)NC[C@H](C)NC(=O)[C@H](CO)NC(=O)[C@@H](NC(=O)[C@H](CC(=O)O)NC(=O)[C@H](CO)NC(=O)[C@@H](NC(=O)[C@H](Cc1ccccc1)NC(=O)[C@@H](NC(=O)CNC(=O)[C@H](CCC(=O)O)NC(=O)CNC(=O)[C@@H](N)Cc1c[nH]cn1)[C@@H](C)O)[C@@H](C)O)C(C)C)C(=O)N[C@@H](C)C(=O)N[C@@H](Cc1c[nH]c2ccccc12)C(=O)N[C@@H](CC(C)C)C(=O)N[C@H](C(=O)N[C@@H](CCCCN)C(=O)NCC(=O)N[C@@H](CCCNC(=N)N)C(=O)NCC(N)=O)C(C)C [compound 6, GG2[A^uA^uA^u]^12-15]
